Experimental data from patent publication US10544143B2, “4-azaindole compounds” (BRISTOL-MYERS SQUIBB COMPANY, priority 2017, dated 2020).
Where two headings read alike, the source gives them in different places.

What was measured:
[1] = target: human TLR8 (Homo sapiens (Human), UniProt Q9NR97); experiment: TLR8 inhibition reporter assay (HEK-Blue SEAP); conditions: read-out: TLR8 IC50;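 further: SEAP driven by IFN-β minimal promoter carrying NF-κB and AP-1 sites, compounds dosed 0.05 nM to 50 µM for 22 h, inhibition scaled between agonist-plus-DMSO and reference-inhibitor wells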
human TLR8, sequence (Q9NR97 27-1041): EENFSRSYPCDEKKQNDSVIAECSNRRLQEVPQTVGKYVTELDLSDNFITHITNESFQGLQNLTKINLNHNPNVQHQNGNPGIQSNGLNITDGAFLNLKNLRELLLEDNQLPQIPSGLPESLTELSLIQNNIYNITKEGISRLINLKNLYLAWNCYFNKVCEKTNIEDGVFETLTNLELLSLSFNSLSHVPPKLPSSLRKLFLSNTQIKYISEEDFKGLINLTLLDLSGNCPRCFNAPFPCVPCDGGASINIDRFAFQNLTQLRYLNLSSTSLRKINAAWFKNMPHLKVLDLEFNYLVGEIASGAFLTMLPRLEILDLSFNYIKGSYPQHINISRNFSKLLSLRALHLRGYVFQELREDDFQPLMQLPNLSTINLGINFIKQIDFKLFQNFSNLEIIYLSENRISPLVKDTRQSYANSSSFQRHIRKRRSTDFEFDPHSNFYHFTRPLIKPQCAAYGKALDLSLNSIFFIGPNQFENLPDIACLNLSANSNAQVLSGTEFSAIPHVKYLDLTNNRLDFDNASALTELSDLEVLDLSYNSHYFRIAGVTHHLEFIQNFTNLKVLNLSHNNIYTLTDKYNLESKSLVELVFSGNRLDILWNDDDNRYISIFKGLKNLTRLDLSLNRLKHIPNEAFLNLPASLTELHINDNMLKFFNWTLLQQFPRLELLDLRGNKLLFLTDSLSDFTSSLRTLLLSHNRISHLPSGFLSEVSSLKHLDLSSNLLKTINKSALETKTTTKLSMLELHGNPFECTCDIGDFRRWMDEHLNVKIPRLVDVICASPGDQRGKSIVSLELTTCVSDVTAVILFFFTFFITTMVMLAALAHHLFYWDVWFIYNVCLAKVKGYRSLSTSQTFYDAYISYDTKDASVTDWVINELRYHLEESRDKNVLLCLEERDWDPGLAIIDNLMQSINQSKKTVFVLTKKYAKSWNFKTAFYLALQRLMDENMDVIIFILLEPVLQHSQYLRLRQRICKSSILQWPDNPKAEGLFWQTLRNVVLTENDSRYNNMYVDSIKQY

[2] = target: human TLR9 (Homo sapiens (Human), UniProt Q9NR96); experiment: TLR9 inhibition reporter assay (HEK-Blue SEAP); conditions: read-out: TLR9 IC50;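 further: SEAP driven by an IFN-β minimal promoter with NF-κB and AP-1 sites, read after 22 h, compounds dosed 0.05 nM–50 µM, inhibition scaled between agonist plus DMSO and reference-inhibitor wells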
human TLR9, sequence (Q9NR96 26-1032): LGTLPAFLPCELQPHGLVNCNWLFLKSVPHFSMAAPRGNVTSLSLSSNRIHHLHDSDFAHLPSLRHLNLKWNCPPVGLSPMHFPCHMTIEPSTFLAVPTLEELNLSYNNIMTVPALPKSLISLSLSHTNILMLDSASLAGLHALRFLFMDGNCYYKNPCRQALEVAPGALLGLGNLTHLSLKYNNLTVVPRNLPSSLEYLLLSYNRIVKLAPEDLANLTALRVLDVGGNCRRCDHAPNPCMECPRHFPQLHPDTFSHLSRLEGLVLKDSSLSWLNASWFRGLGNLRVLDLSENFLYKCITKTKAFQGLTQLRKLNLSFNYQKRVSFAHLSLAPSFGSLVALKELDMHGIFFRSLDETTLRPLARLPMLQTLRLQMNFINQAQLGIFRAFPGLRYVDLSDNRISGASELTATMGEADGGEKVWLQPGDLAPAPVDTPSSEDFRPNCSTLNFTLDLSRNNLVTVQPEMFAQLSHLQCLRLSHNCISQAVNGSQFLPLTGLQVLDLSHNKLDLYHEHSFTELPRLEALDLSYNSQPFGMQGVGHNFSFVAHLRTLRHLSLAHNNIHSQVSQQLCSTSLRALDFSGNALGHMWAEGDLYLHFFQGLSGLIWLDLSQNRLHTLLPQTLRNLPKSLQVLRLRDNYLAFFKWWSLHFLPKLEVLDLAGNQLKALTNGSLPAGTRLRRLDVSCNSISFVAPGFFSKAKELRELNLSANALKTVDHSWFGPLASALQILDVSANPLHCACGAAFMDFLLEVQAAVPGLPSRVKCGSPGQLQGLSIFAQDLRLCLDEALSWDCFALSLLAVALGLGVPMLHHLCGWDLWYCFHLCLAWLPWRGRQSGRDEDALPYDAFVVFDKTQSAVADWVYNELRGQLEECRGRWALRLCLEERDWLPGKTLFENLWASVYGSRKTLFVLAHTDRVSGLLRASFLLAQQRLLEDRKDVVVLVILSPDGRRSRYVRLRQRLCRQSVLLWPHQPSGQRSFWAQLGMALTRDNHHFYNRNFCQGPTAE
Protocol: HEK-Blue™-cells (Invivogen) overexpressing human TLR7, TLR8 or TLR9 receptors were used for screening inhibitors of these receptors using an inducible SEAP (secreted embryonic alkaline phosphatase) reporter gene under the control of the IFN-β minimal promoter fused to five NF-κB and AP-1-binding sites. Briefly, cells are seeded into Greiner 384 well plates (15000 cells per well for TLR7, 20,000 for TLR8 and 25,000 for TLR9) and then treated with test compounds in DMSO to yield a final dose response concentration range of 0.05 nM-50 μM. After a 30 minute compound pre-treatment at room temperature, the cells are then stimulated with a TLR7 ligand (gardiquimod at a final concentration of 7.5 μM), TLR8 ligand (R848 at a final concentration of 15.9 μM) or TLR9 ligand (ODN2006 at a final concentration of 5 nM) to activate NF-κB and AP-1 which induce the production of SEAP. After a 22 hour incubation at 37° C., 5% CO2, SEAP levels are determined with the addition of HEK-Blue™ Detection reagent (Invivogen), a cell culture medium that allows for detection of SEAP, according to manufacturer's specifications.

[3] = target: human TLR7 (Homo sapiens (Human), UniProt Q9NYK1); experiment: TLR7 inhibition reporter assay (HEK-Blue SEAP); type: cell-based
human TLR7, sequence (Q9NYK1 27-1049): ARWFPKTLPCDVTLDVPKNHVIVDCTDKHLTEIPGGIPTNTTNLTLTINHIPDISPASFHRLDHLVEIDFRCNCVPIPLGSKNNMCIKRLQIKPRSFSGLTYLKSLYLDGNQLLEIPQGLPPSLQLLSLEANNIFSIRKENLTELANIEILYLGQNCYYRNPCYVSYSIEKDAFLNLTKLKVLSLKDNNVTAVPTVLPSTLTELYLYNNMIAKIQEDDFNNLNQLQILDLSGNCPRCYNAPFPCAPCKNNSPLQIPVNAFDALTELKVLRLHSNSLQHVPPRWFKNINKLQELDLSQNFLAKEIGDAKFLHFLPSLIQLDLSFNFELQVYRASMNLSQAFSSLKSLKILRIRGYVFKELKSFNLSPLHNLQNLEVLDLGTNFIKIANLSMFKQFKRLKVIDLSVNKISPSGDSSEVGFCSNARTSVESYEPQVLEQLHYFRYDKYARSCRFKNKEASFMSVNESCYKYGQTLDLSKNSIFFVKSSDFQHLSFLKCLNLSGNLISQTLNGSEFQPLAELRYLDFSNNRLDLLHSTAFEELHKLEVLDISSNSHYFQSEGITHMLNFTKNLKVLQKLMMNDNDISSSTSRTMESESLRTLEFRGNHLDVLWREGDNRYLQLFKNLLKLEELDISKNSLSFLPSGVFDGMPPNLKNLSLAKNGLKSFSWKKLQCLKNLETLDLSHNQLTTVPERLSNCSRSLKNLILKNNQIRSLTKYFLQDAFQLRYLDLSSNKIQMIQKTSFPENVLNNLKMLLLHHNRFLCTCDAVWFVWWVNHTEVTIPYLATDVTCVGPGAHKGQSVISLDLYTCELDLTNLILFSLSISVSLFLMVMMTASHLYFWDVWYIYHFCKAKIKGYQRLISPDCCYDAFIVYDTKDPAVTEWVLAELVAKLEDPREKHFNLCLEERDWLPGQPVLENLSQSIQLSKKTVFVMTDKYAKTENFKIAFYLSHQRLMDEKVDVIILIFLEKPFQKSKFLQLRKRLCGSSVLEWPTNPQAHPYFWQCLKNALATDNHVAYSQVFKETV

[4] = HEK-Blue cells overexpressing human TLR8, R848 15.9 μM stimulation, SEAP reporter
[5] = HEK-Blue cells overexpressing human TLR9, ODN2006 5 nM stimulation, SEAP reporter
[6] = HEK-Blue cells overexpressing human TLR7, gardiquimod 7.5 μM stimulation, SEAP reporter
[7] = HEK-Blue cells overexpressing human TLR8, SEAP reporter, R848 15.9 μM
[8] = HEK-Blue cells overexpressing human TLR9, SEAP reporter, ODN2006 5 nM
[9] = HEK-Blue cells overexpressing human TLR7, SEAP reporter, gardiquimod 7.5 μM

Structure (SMILES) | IC50 [1, 4] [nM] | IC50 [2, 5] [nM] | IC50 [3, 6] [nM] | IC50 [1, 7] [nM] | IC50 [2, 8] [nM] | IC50 [3, 9] [nM]
Cc1c(-c2[nH]c3ccc(C4CCC(N5CCC[C@@H]5CO)CC4)nc3c2C(C)C)cn2ncnc2c1C (stereo partly drawn) [Example 372] | 7.6 | 1460 | 3.2 | – | – | –
Cc1c(-c2[nH]c3ccc(C4CCC(NCCC(F)(F)F)CC4)nc3c2C(C)C)cn2ncnc2c1C (stereo not drawn) [Example 373] | 8.3 | 1960 | 8.6 | – | – | –
Cc1c(-c2[nH]c3ccc(C4CCC(N5CC(F)(F)C5)CC4)nc3c2C(C)C)cn2ncnc2c1C (stereo not drawn) [Example 374] | 187 | 21600 | 36 | – | – | –
C#CCNC1CCC(c2ccc3[nH]c(-c4cn5ncnc5c(C)c4C)c(C(C)C)c3n2)CC1 (stereo not drawn) [Example 375] | 4.4 | 2720 | 0.87 | – | – | –
Cc1c(-c2[nH]c3ccc(C4CCC(NCCC(F)(F)F)CC4)nc3c2C(C)C)cn2ncnc2c1C (stereo not drawn) [Example 376] | 1.2 | 1030 | 0.71 | – | – | –
Cc1c(-c2[nH]c3ccc(C4CCC(N5CCC[C@@H]5CO)CC4)nc3c2C(C)C)cn2ncnc2c1C (stereo partly drawn) [Example 377] | 2.2 | 767 | 2.1 | – | – | –
CCN(CC)C1CCC(c2ccc3[nH]c(-c4cn5ncnc5c(C)c4C)c(C(C)C)c3n2)CC1 (stereo not drawn) [Example 378] | 4.6 | 1640 | 1.6 | – | – | –
Cc1c(-c2[nH]c3ccc(C4CCC(NCCO)CC4)nc3c2C(C)C)cn2ncnc2c1C (stereo not drawn) [Example 379] | 4.7 | 909 | 2.6 | – | – | –
Cc1c(-c2[nH]c3ccc(C4CCC(N(C)C5CC5)CC4)nc3c2C(C)C)cn2ncnc2c1C (stereo not drawn) [Example 380] | 1.6 | 1880 | 1.4 | – | – | –
Cc1c(-c2[nH]c3ccc(C4CCC(N5CCC(F)(F)CC5)CC4)nc3c2C(C)C)cn2ncnc2c1C (stereo not drawn) [Example 381] | 5.5 | 8060 | 3.7 | – | – | –
Cc1c(-c2[nH]c3ccc(C4CCC(N5CCS(=O)(=O)CC5)CC4)nc3c2C(C)C)cn2ncnc2c1C (stereo not drawn) [Example 382] | 22 | > 50000 | 7.8 | – | – | –
Cc1c(-c2[nH]c3ccc(C4CCC(N5CCS(=O)(=O)CC5)CC4)nc3c2C(C)C)cn2ncnc2c1C (stereo not drawn) [Example 383] | 167 | > 50000 | 33 | – | – | –
Cc1c(-c2[nH]c3ccc(C4CCC(NCCC#N)CC4)nc3c2C(C)C)cn2ncnc2c1C (stereo not drawn) [Example 384] | 25 | 1530 | 13 | – | – | –
Cc1c(-c2[nH]c3ccc(C4CCC(N5CCC(F)(F)CC5)CC4)nc3c2C(C)C)cn2ncnc2c1C (stereo not drawn) [Example 385] | 46 | 11200 | 22 | – | – | –
Cc1c(-c2[nH]c3ccc(C4CCC(N5CCC5)CC4)nc3c2C(C)C)cn2ncnc2c1C (stereo not drawn) [Example 386] | 4.2 | 1440 | 1.5 | – | – | –
Cc1c(-c2[nH]c3ccc(C4CCC(N(C)C5CC5)CC4)nc3c2C(C)C)cn2ncnc2c1C (stereo not drawn) [Example 387] | 19 | 5510 | 7.2 | – | – | –
CCN(C)C1CCC(c2ccc3[nH]c(-c4cn5ncnc5c(C)c4C)c(C(C)C)c3n2)CC1 (stereo not drawn) [Example 388] | 2.2 | 891 | 0.87 | – | – | –
COCCN(C)C1CCC(c2ccc3[nH]c(-c4cn5ncnc5c(C)c4C)c(C(C)C)c3n2)CC1 (stereo not drawn) [Example 389] | 1.6 | 923 | 0.45 | – | – | –
CCN(C)C1CCC(c2ccc3[nH]c(-c4cn5ncnc5c(C)c4C)c(C(C)C)c3n2)CC1 (stereo not drawn) [Example 390] | 7.6 | 3090 | 1.6 | – | – | –
COCCN(C)C1CCC(c2ccc3[nH]c(-c4cn5ncnc5c(C)c4C)c(C(C)C)c3n2)CC1 (stereo not drawn) [Example 391] | 14 | 2450 | 2.6 | – | – | –
Cc1c(-c2[nH]c3ccc(C4CCC(N5CCC[C@H]5CO)CC4)nc3c2C(C)C)cn2ncnc2c1C (stereo partly drawn) [Example 392] | 6.1 | 1750 | 3.2 | – | – | –
Cc1c(-c2[nH]c3ccc(C4CCC(N5CCC[C@H]5CO)CC4)nc3c2C(C)C)cn2ncnc2c1C (stereo partly drawn) [Example 393] | 1.3 | 360 | 0.47 | – | – | –
Cc1ncc(CN(C)C2CCC(c3ccc4[nH]c(-c5cn6ncnc6c(C)c5C)c(C(C)C)c4n3)CC2)cn1 (stereo not drawn) [Example 394] | 1.5 | 1410 | 1.4 | – | – | –
COc1ncc(CN(C)C2CCC(c3ccc4[nH]c(-c5cn6ncnc6c(C)c5C)c(C(C)C)c4n3)CC2)cn1 (stereo not drawn) [Example 395] | – | – | – | 10 | 1620 | 7.4
Cc1c(-c2[nH]c3ccc(C4CCC(N(C)C(=O)CN(C)C)CC4)nc3c2C(C)C)cn2ncnc2c1C (stereo not drawn) [Example 396] | – | – | – | 17 | 1530 | 1.7
Cc1c(-c2[nH]c3ccc(C4CCC(N(C)Cc5c[nH]nn5)CC4)nc3c2C(C)C)cn2ncnc2c1C (stereo not drawn) [Example 397] | – | – | – | 10 | 2400 | 6.3
Cc1c(-c2[nH]c3ccc(C4CCC(N(C)CC(N)=O)CC4)nc3c2C(C)C)cn2ncnc2c1C (stereo not drawn) [Example 398] | – | – | – | 17 | 4120 | 3.8
CNC(=O)CN(C)C1CCC(c2ccc3[nH]c(-c4cn5ncnc5c(C)c4C)c(C(C)C)c3n2)CC1 (stereo not drawn) [Example 400] | – | – | – | 2.9 | 1550 | 0.74
Cc1c(-c2[nH]c3ccc(C4CCC(N(C)C5COC5)CC4)nc3c2C(C)C)cn2ncnc2c1C (stereo not drawn) [Example 401] | – | – | – | 6.4 | 5720 | 5.7
Cc1ncc(CN(C)C2CCC(c3ccc4[nH]c(-c5cn6ncnc6c(C)c5C)c(C(C)C)c4n3)CC2)cn1 (stereo not drawn) [Example 402] | – | – | – | 43 | 5150 | 31

The next lines start with the values.

IC50 [1, 4] [nM] | IC50 [2, 5] [nM] | IC50 [3, 6] [nM] | IC50 [1, 7] [nM] | IC50 [2, 8] [nM] | IC50 [3, 9] [nM] | Structure (SMILES)
– | – | – | 44 | 4280 | 7.7 | CNC(=O)CN(C)C1CCC(c2ccc3[nH]c(-c4cn5ncnc5c(C)c4C)c(C(C)C)c3n2)CC1 (stereo not drawn) [Example 403]
– | – | – | 9.3 | 1540 | 3.8 | Cc1c(-c2[nH]c3ccc(C4CCC(N(C)C(=O)CN(C)C)CC4)nc3c2C(C)C)cn2ncnc2c1C (stereo not drawn) [Example 404]
– | – | – | 2.5 | 1420 | 3.6 | COc1ncc(CN(C)C2CCC(c3ccc4[nH]c(-c5cn6ncnc6c(C)c5C)c(C(C)C)c4n3)CC2)cn1 (stereo not drawn) [Example 405]
– | – | – | 3 | 1470 | 1.4 | Cc1c(-c2[nH]c3ccc(C4CCC(N(C)CC(N)=O)CC4)nc3c2C(C)C)cn2ncnc2c1C (stereo not drawn) [Example 406]
– | – | – | 8.5 | 2460 | 7.2 | Cc1c(-c2[nH]c3ccc(C4CCC(N5CCCC5)CC4)nc3c2C(C)C)cn2ncnc2c1C (stereo not drawn) [Example 407]
– | – | – | 43 | 6440 | 18 | Cc1c(-c2[nH]c3ccc(C4CCC(N(C)CC(=O)N(C)C)CC4)nc3c2C(C)C)cn2ncnc2c1C (stereo not drawn) [Example 408]
– | – | – | 1.6 | 550 | 1.7 | Cc1c(-c2[nH]c3ccc(C4CCC(NCCO)CC4)nc3c2C(C)C)cn2ncnc2c1C (stereo not drawn) [Example 409]
– | – | – | 6.5 | 4920 | 5 | Cc1c(-c2[nH]c3ccc(C4CCC(N(C)CC(=O)N(C)C)CC4)nc3c2C(C)C)cn2ncnc2c1C (stereo not drawn) [Example 410]
– | – | – | 8 | 2300 | 6.3 | CCN(CC)C1CCC(c2ccc3[nH]c(-c4cn5ncnc5c(C)c4C)c(C(C)C)c3n2)CC1 (stereo not drawn) [Example 411]
– | – | – | 2.1 | 727 | 2.2 | Cc1c(-c2[nH]c3ccc(C4CCC(NCc5c[nH]nn5)CC4)nc3c2C(C)C)cn2ncnc2c1C (stereo not drawn) [Example 412]
– | – | – | 18 | 4740 | […] | Cc1c(-c2[nH]c3ccc(C4CCC(NCc5cnco5)CC4)nc3c2C(C)C)cn2ncnc2c1C (stereo not drawn) [Example 413]
– | – | – | 12 | 1760 | 5.1 | Cc1cnc(CN(C)C2CCC(c3ccc4[nH]c(-c5cn6ncnc6c(C)c5C)c(C(C)C)c4n3)CC2)cn1 (stereo not drawn) [Example 414]
– | – | – | 3.5 | 1240 | 2.5 | Cc1cnc(CN(C)C2CCC(c3ccc4[nH]c(-c5cn6ncnc6c(C)c5C)c(C(C)C)c4n3)CC2)cn1 (stereo not drawn) [Example 415]
– | – | – | 1.2 | 1620 | […] | Cc1c(-c2[nH]c3ccc(C4CCC(NCc5cnco5)CC4)nc3c2C(C)C)cn2ncnc2c1C (stereo not drawn) [Example 416]
– | – | – | 2.5 | 1740 | 4.1 | Cc1c(-c2[nH]c3ccc(C4CCC(NCC5(S(C)(=O)=O)CC5)CC4)nc3c2C(C)C)cn2ncnc2c1C (stereo not drawn) [Example 419]
– | – | – | 2.8 | 3530 | 1.2 | CNC(=O)CN(C)C1CCC(c2ccc3[nH]c(-c4cn5ncnc5c(C)c4C)c(C(C)C)c3n2)CC1 (stereo not drawn) [Example 420]
– | – | – | 1.8 | 2060 | 1.6 | Cc1c(-c2[nH]c3ccc(C4CCC(NC5CC5)CC4)nc3c2C(C)C)cn2ncnc2c1C (stereo not drawn) [Example 421]
– | – | – | 35 | 6240 | 15 | CNC(=O)CN(C)C1CCC(c2ccc3[nH]c(-c4cn5ncnc5c(C)c4C)c(C(C)C)c3n2)CC1 (stereo not drawn) [Example 422]
– | – | – | 83 | > 50000 | 175 | Cc1c(-c2[nH]c3ccc(C4CCC(NCCS(=O)(=O)C(F)(F)F)CC4)nc3c2C(C)C)cn2ncnc2c1C (stereo not drawn) [Example 423]
– | – | – | 0.5 | 2920 | 0.87 | Cc1c(-c2[nH]c3ccc(C4CCC(N(C)CCS(C)(=O)=O)CC4)nc3c2C(C)C)cn2ncnc2c1C (stereo not drawn) [Example 425]
